Assay results: ChEMBL document CHEMBL1150884, “Antifungal amide from leaves of Piper hispidum” (1998)

System: Cladosporium sphaerospermum
Experiment: Antifungal activity against Cladosporium sphaerospermum after 72 hrs in dark by TLC assay
Format: functional

O=C(/C=C\C=C/CCc1ccc2c(c1)OCO2)N1CCCC1
MIC: 8 µg
